The subject of series [1] is intracellular T. cruzi. Briefly: Rate-of-kill assay (static-cidal assay in timecourse format). Type of series: cell-based, Trypanosoma cruzi (Silvio X10/7 A1) in Vero cells. The note with it: for MCC: Trypanosoma cruzi, -LOG(MCC[M]), minimum cidal concentration, lowest concentration clearing at least half as many Vero cells as Nifurtimox (50μM) within 96 h, read-out: pMCC (RoK) (converted); for rate-of-kill profile (onset / rate of cidal activity): timepoints every 24h up to 96 h; for final residual level of infection (percent infected cells at the end of the assay): end of rate-of-kill timecourse (96 h). As for the experimental part: The rate-of-kill assay uses the same protocol as the static-cidal assay but plates are incubated for 24, 48, 72 and 96 hours prior to fixing. Percent infected data is plotted as a time-course for each compound at every concentration. The minimum cidal concentration (MCC) is defined as the lowest concentration of compound that clears at least half as many Vero cells of intracellular parasites as Nifurtimox (50μM) within the timeframe of the assay.
To obtain rate-of-kill information we carried out the static-cidal assay in timecourse format (Fig 4A), with timepoints taken every 24h.

Series [2] deals with intracellular T. cruzi amastigotes. The series is described as follows: Primary high-content intracellular T. cruzi amastigote assay. Type of series: cell-based, Trypanosoma cruzi (Silvio X10/7 A1) in Vero cells. As for the experimental part:
(§1) The compounds tested were obtained from the NIH (Clinical Collection) and from SelleckChem (FDA-approved drug library). Compounds were dispensed into black 384-well assay plates (Corning) by acoustic dispensing (LabCyte ECHO). […] Potencies are reported as pEC50 (-LOG(EC50[M])).
(§2) For the primary intracellular assay the infection conditions were chosen so that no trypomastigote egress occurs during the compound incubation time. First, Vero cells were infected overnight with tissue culture derived T. cruzi trypomastigotes in T225 tissue culture flasks (MOI 5). Next, any remaining free trypomastigotes were washed away with serum free MEM and the infected Vero cells were harvested by trypsinisation. The infected Vero cells were then plated into 384-well plates containing the compounds to be tested, at 4000 cells per well in MEM media with 1% FCS. […] The plates were imaged on a Perkin Elmer Operetta high-content imaging system using a 20x objective. Images were analysed using the Columbus system (Perkin Elmer). The algorithm for the primary assay first identified the Vero nuclei followed by demarcation of the cytoplasm and identification of intracellular amastigotes. This algorithm reported mean number of parasites per Vero cell and total number of Vero cells. Data analysis was as described in [22]. […] Hits from the primary screen were selected based on the following criteria: T. cruzi activity (percent inhibition) > (median T. cruzi percent inhibition + 3 x robust Standard Deviation) and Vero activity (percent inhibition) < (median percent Vero inhibition + 3 x robust Standard Deviation).

Another series has as its system Vero cells. The series is described as follows: Host cell toxicity read-out of the primary assay (Vero cell count). Type of series: cell-based. The note with it: Chlorocebus sabaeus, Vero; hits of the bio-actives screen, 10-point dose-response, top concentration 50μM, 72h; read-out: pEC50 (Vero) (converted). As for the experimental part:
as §1, §2

Series [3] relates to intracellular T. cruzi. Briefly: Static-cidal assay (percent infected Vero cells, 96 h). Type of series: cell-based, Trypanosoma cruzi (Silvio X10/7 A1) in Vero cells. The note with it: for MAX PI / maximum inhibition in the static-cidal assay: 96h timeframe of the assay. As for the experimental part: The secondary static-cidal assay uses the same protocol as the standard assay with the following changes: infection is done at MOI 10, and infected Vero cells are incubated 88h at 37°C in presence of 5% CO2 prior to trypsinisation and plating. Four hours after plating a control plate (no compounds) was fixed with formaldehyde as described above. Compound containing plates were fixed after incubation for 96 hours. Compounds are run as ten point dose response curves in triplicate. The algorithm for the secondary assay was similar to the primary assay but reported percent infected Vero cells instead of the mean number of parasites.
To assess screening hits for their ability to be cytocidal rather than cytostatic or growth slowing we developed a medium throughput (400 compounds / batch) assay to predict cidality of compounds against intracellular T. cruzi. […] Instead we developed an algorithm that assesses whether a Vero cell is infected or not, and we used the percentage of infected cells as primary measurement for the static-cidal assay. In order to readily identify cidal compounds we normalised the raw data using the starting level of infection as 0% effect and the final level of infection in presence of 50μM Nifurtimox as 100% effect control.

In the next series the target is CYP51 (Trypanosoma cruzi, UniProt Q7Z1V1). The series is described as follows: biochemical. Type of series: biochemical.
Sequence of CYP51 (Q7Z1V1 whole entry): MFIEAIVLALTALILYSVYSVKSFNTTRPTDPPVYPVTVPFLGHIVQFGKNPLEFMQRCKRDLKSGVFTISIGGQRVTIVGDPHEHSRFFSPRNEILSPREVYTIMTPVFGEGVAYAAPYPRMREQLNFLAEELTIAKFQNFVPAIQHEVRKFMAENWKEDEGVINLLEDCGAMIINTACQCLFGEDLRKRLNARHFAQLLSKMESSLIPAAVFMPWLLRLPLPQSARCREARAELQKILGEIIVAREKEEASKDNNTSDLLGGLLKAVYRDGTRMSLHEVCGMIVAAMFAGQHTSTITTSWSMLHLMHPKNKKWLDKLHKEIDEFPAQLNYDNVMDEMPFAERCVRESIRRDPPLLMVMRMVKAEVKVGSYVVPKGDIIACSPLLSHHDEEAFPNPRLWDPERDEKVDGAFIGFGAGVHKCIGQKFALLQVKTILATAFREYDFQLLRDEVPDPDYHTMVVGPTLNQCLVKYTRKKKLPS
The conditions of series [4]: humans; cited from earlier work.
[5] abbreviates: Trypanosoma cruzi; hits of the bio-actives screen, 10-point dose-response, top concentration 50μM, 72h; read-out: pEC50 (cruzi) (converted).
Where [6] appears, read: Trypanosoma cruzi, Vero, 96 h, 0% = starting level of infection, 100% = 50μM Nifurtimox at 96h, only from concentrations not toxic to the host cells, read-out: MAX PI (SC), Maximum Percent Inhibition in the static cidal assay.
[7] abbreviates: read-out: CYP51 pIC50 (converted).
[8] abbreviates: Trypanosoma cruzi, 72 h; read-out: EC50.
Setting [9] is: Trypanosoma cruzi, 72 h; read-out: Mean pEC50 (converted).

Molecules are shown by their SMILES. Where two headings read alike, the source gives them in different places.

Regarding `C[C@]12CC[C@H](O)CC1=CC[C@@H]1[C@@H]2CC[C@]2(C)C(c3cccnc3)=CC[C@@H]12` [Abiraterone], in the series with intracellular T. cruzi [1], the MCC is 5.01e-05 M. The EC50 is 794 nM in series [2] (setting [5]) and 31600 nM in the series on Vero cells. In addition, in the series on intracellular T. cruzi [3] (setting [6]), the Emax was 60%. The IC50 at CYP51 (setting [7]) was > 1000 nM.

On to `CCOC(=O)C1=C(COCCN)NC(C)=C(C(=O)OC)C1c1ccccc1Cl` (stereo not drawn) [Amlodipine], for which, in series [2] (setting [5]), the EC50 is 501 nM. For the same compound, the Emax in the series with intracellular T. cruzi [3] (setting [6]) was 113%. Moreover, on CYP51 (setting [7]), the IC50 is > 10000 nM.

On to `CN1CCCC(n2nc(Cc3ccc(Cl)cc3)c3ccccc3c2=O)CC1` (stereo not drawn) [Azelastine], for which the MCC with intracellular T. cruzi [1] is 2e-06 M. Moreover, the “rate-of-kill profile (onset / rate of cidal activity)” value in the series with intracellular T. cruzi [1] is “a more delayed response”. Moreover, the EC50 in series [2] (setting [5]) is 251 nM; in the series with Vero cells, 15800 nM. Also, in the series on intracellular T. cruzi [3] (setting [6]), the Emax was determined as 106%. Further, the IC50 on CYP51 (setting [7]) is > 10000 nM. Also, in series [4], the oral bioavailability entry was “reasonable oral bioavailability”.

Regarding `O=C(Cn1ccnc1[N+](=O)[O-])NCc1ccccc1` [Benznidazole], in the series with intracellular T. cruzi [1], the “final residual level of infection (percent infected cells at the end of the assay)” value is ~ 8% and the “rate-of-kill profile (onset / rate of cidal activity)” value is given as “killing seen from 24h onwards”. This compound gave an EC50 in series [2] (Trypanosoma cruzi, 72 h) of 490 nM. For the same compound, in series [2] (Trypanosoma cruzi, 72 h, read-out: Mean pEC50 (converted)), the EC50 is 501 nM. For the same compound, the “MAX PI / maximum inhibition in the static-cidal assay” value (shortened to “MAX PI / maximum inhibition”) in the series with intracellular T. cruzi [3] is recorded as “around 100%”. For the same compound, the Emax with intracellular T. cruzi [3] (Trypanosoma cruzi, Vero, 96 h, read-out: MAX PI (SC), Maximum Percent Inhibition in the static cidal assay) is 91%. Moreover, the IC50 on CYP51 (setting [7]) was > 10000 nM.

Turning to `c1ccc(-c2ccc(C(c3ccccc3)n3ccnc3)cc2)cc1` (stereo not drawn) [Bifonazole], the MCC with intracellular T. cruzi [1] was 6.31e-08 M. For the same compound, the values for the EC50 (in series [2] (setting [5]); in the series with Vero cells) were 10 nM and 15800 nM, respectively. Moreover, the Emax with intracellular T. cruzi [3] (setting [6]) was found to be 69%. Further, at CYP51 (setting [7]), the IC50 is 39.8 nM.

As for `CN1CCC[C@@H]1CCO[C@](C)(c1ccccc1)c1ccc(Cl)cc1` [Clemastine], the MCC in the series with intracellular T. cruzi [1] is 2e-07 M. Moreover, in series [4], the oral bioavailability entry was “reasonable oral bioavailability”.

As for `CCOC(=O)C(C)(C)Oc1ccc(Cl)cc1` [Clofibrate], the MCC in the series with intracellular T. cruzi [1] was 1.58e-05 M. The EC50 in series [2] (setting [5]) is 6310 nM; in the series with Vero cells, 15800 nM. Moreover, the Emax in the series on intracellular T. cruzi [3] (setting [6]) was 116%. Besides, the IC50 against CYP51 was > 10000 nM. For the same compound, the oral bioavailability result in series [4] is on record as “reasonable oral bioavailability”.

As for `Clc1ccccc1C(c1ccccc1)(c1ccccc1)n1ccnc1` [Clotrimazole], in the series on intracellular T. cruzi [1], the MCC is 2.51e-08 M. The Emax in the series with intracellular T. cruzi [3] (setting [6]) amounted to 60%.

In the case of `Clc1ccc(COC(Cn2ccnc2)c2ccc(Cl)cc2Cl)cc1` (stereo not drawn) [Econazole], in the series on intracellular T. cruzi [1], the MCC was 6.31e-08 M. For the same compound, the Emax in the series on intracellular T. cruzi [3] (setting [6]) is 63%.

Consider `CC(C(O)c1ccc(O)cc1)N1CCC(Cc2ccccc2)CC1` (stereo not drawn) [Ifenprodil], for which the MCC in the series on intracellular T. cruzi [1] was 2e-06 M. For the same compound, the EC50 is 501 nM in series [2] (setting [5]) and 50100 nM with Vero cells. Besides, in the series with intracellular T. cruzi [3] (setting [6]), the Emax came to 117%. Besides, the IC50 at CYP51 (setting [7]) was > 10000 nM. Besides, in series [4], the oral bioavailability result is listed as “reasonable oral bioavailability”.

As for `CCC(C)n1ncn(-c2ccc(N3CCN(c4ccc(OCC5COC(Cn6cncn6)(c6ccc(Cl)cc6Cl)O5)cc4)CC3)cc2)c1=O` (stereo not drawn) [Itraconazole], the MCC in the series on intracellular T. cruzi [1] was 6.31e-08 M. In addition, the values for the EC50 (in series [2] (setting [5]); in the series with Vero cells) were 10 nM and 15800 nM, respectively. Besides, the Emax with intracellular T. cruzi [3] (setting [6]) was found to be 71%.

Turning to `CC(=O)N1CCN(c2ccc(OCC3COC(Cn4ccnc4)(c4ccc(Cl)cc4Cl)O3)cc2)CC1` (stereo not drawn) [Ketoconazole], in the series with intracellular T. cruzi [1], the MCC was 7.94e-09 M. The EC50 in series [2] (setting [8]) was 2 nM; in series [2] (setting [9]) it was 2 nM; in series [2] (setting [5]) it was 5.01 nM; with Vero cells, 31600 nM. Moreover, the Emax with intracellular T. cruzi [3] (setting [6]) stood at 61%.

Broadly, the inhibition is the relative decrease from the control value, in per cent. As to `CC1CS(=O)(=O)CCN1/N=C/c1ccc([N+](=O)[O-])o1` (stereo not drawn) [Nifurtimox], in the series on intracellular T. cruzi [1], the MCC is 5.01e-06 M, the “final residual level of infection (percent infected cells at the end of the assay)” value is given as ~ 8% and the “rate-of-kill profile (onset / rate of cidal activity)” value was “killing seen from 24h onwards”. Further, in series [2] (setting [8]), the EC50 was determined as 260 nM. Also, in series [2] (setting [9]), the EC50 was 251 nM. Further, in the series with intracellular T. cruzi [3], the “MAX PI / maximum inhibition” value is listed as “around 100%”. Also, in the series on intracellular T. cruzi [3] (setting [6]), the inhibition at 50 µM worked out at 103%. For the same compound, the IC50 against CYP51 was > 10000 nM.

Consider `Cc1cn(-c2cc(NC(=O)c3ccc(C)c(Nc4nccc(-c5cccnc5)n4)c3)cc(C(F)(F)F)c2)cn1` [Nilotinib], for which the “rate-of-kill profile (onset / rate of cidal activity)” value with intracellular T. cruzi [1] is “a much slower rate”. For the same compound, the EC50 in series [2] (setting [5]) is 2510 nM. In addition, in the series on intracellular T. cruzi [3] (setting [6]), the Emax is 38%. Besides, the “CYP51 inhibition (in words)” value at CYP51 was “strong CYP51 inhibition”.

As for `CC[C@@H]([C@H](C)O)n1ncn(-c2ccc(N3CCN(c4ccc(OC[C@@H]5CO[C@@](Cn6cncn6)(c6ccc(F)cc6F)C5)cc4)CC3)cc2)c1=O` [Posaconazole], in the series with intracellular T. cruzi [1], the MCC is 1e-07 M, the “final residual level of infection (percent infected cells at the end of the assay)” value is reported as ~ 15% and the “rate-of-kill profile (onset / rate of cidal activity)” value was “slower acting with a later onset of cidal activity”. The EC50 in series [2] (setting [8]) worked out at 1 nM. Also, the EC50 in series [2] (setting [9]) is 1 nM. Besides, in the series on intracellular T. cruzi [3], the “MAX PI / maximum inhibition” value turned out to be 60%. Further, the Emax with intracellular T. cruzi [3] (setting [6]) is 59%.

Regarding `O=C1Cc2cc(CCN3CCN(c4nsc5ccccc45)CC3)c(Cl)cc2N1` [Ziprasidone], in the series on intracellular T. cruzi [1], the MCC was 5.01e-06 M and the “rate-of-kill profile (onset / rate of cidal activity)” value was “fast onset of cidality”. For the same compound, in series [2] (setting [5]), the EC50 was 1580 nM. Moreover, in the series on Vero cells, the EC50 is 25100 nM. Further, in the series on intracellular T. cruzi [3] (setting [6]), the Emax came out at 111%. Also, the IC50 at CYP51 (setting [7]) was > 10000 nM. Besides, the oral bioavailability entry in series [4] was “reasonable oral bioavailability”.
